Structures can show the parent of a compound that is named as a salt.

One assay addresses T1, human GlyT1b (Homo sapiens, UniProt P48067).
T1 construct: expressed in transfected cells
T1 sequence (P48067 1-652 isoform P48067-3): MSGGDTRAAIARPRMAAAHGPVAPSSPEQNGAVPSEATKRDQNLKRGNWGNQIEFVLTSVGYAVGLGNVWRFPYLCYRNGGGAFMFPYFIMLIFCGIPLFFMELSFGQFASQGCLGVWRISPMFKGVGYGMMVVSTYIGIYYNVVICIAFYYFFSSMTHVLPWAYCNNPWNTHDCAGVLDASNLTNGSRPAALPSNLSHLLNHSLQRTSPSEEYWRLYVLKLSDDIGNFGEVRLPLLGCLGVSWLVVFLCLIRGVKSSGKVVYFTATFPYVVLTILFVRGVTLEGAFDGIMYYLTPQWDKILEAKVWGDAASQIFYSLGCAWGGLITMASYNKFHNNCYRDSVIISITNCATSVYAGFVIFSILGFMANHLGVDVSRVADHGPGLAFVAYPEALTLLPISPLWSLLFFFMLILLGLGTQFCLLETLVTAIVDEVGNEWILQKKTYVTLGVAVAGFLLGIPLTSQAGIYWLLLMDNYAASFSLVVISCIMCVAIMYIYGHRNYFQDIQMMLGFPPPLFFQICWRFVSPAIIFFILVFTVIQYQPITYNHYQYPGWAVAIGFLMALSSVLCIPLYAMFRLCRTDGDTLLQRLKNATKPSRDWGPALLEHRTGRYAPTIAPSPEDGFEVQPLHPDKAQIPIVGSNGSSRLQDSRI
Briefly: [3H]Glycine Uptake Assay (SPA) in hGlyT1b/CHO cells. The format is cell-based. As to conditions: compounds of Formula Ia, read at 2 h. The protocol: The activity and usefulness of the compounds can be assessed in assays known to those skilled in the art. […] The potency was measured in the [3H]Glycine Uptake Assay substantially as described below.
[^3H]Glycine Uptake Assay
[^3H]Glycine: PerkinElmer (NET-004, [2-^3H]Glycine, 53.3 Ci/mmol, 1 mCi/mL)
Preparation of recombinant human GlyT1-CHO cells (hGlyT1-CHO). […] CHO-K1 cells (ATCC) were transfected with the recombinant vector containing GlyT1b using Lipofectamine 2000 (Invitrogen) and cultured in Ham's/F12 media supplemented with 10% fetal bovine serum, 2 mM L-glutamine at 37° C., 5% CO2, 90% humidity. Twenty-four hours after transfection, cells were diluted and switched to media containing 500 μg/ml hygromycin B. Antibiotic resistant cells were obtained after 21 days of culture in the presence of hygromycin B. Clonal stable cell lines were isolated by FACS single cell deposition into 96-well plates.
Cell culture: Recombinant hGlyT1-CHO cells were cultured in cell culture medium (Ham's/F12, containing 10% FBS, 2 mM L-glutamine and 500 μg/ml hygromycin B in 175 cm^2 flasks until near confluence prior to use in assay.
Cell suspension: Cell medium in a cell culture flask containing near confluent cells was removed and 5 ml of cell stripper was added to submerge all cells on the surface of the culture flask. Cell stripper was removed immediately and the flask incubated in a 37° C. incubator for ˜5 min. Cells were shaken loose and suspended in 5 ml of PBS. After splitting cells to initiate a new flask(s), the cells remaining were collected by centrifugation, counted, and resuspended in assay buffer to a density of ˜2 million/mL. The cell suspension was kept at room temperature before use.
SPA and isotope mixture: WGA PTV beads were suspended in assay buffer (2 mg/ml) containing 60 nM [^3H]Glycine and 20 μM unlabeled glycine and the suspension was kept at room temperature before assay.
Assay of glycine uptake: To the wells of an OptiPlate, 2 μl DMSO containing a test compound was spotted. This was followed by addition of 98 μl of cell suspension (˜1 million/ml final). After incubating cells with compound for ˜15 min, 100 μl of the SPA (200 μg/well final) and isotope mixture (30 nM isotope with 10 μM cold glycine, final) was added to initiate the glycine uptake. At 2 h, the plate was read on a TopCount to quantify SPA counts.
For orientation: IC50 means the concentration needed to halve the response being measured. `O=C(NC(c1ccccc1)C12CCC(CC1)CN2)c1cccc(Cl)c1Cl` (single isomer, unassigned) [N-(2-azabicyclo[2.2.2]octan-1-yl(phenyl)methyl)-2,3-dichlorobenzamide]: the IC50 stood at 0.0997 µM.

The compound `Cc1c(C(=O)NC(c2ccccc2)C23CCC(CC2)CN3)cccc1C(F)(F)F` (single isomer, unassigned) [N-(2-azabicyclo[2.2.2]octan-1-yl(phenyl)methyl)-2-methyl-3-(trifluoromethyl)benzamide] registered an IC50 of 0.0676 µM.

Compound `O=C(NC(c1ccccc1)C12CCC(CC1)CN2)c1cccc(C(F)(F)F)c1Cl` (single isomer, unassigned) [drawing 102, N-(2-azabicyclo[2.2.2]octan-1-yl(phenyl)methyl)-2-chloro-3-(trifluoromethyl)benzamide] gave an IC50 of 0.455 µM.

`O=C(NC(c1ccccc1)C12CCC(CC1)CN2)c1cccc(C(F)(F)F)c1Cl` (single isomer, unassigned) [drawing 103, N-(2-azabicyclo[2.2.2]octan-1-yl(phenyl)methyl)-2-chloro-3-(trifluoromethyl)benzamide] showed an IC50 of 0.198 µM.

`O=C(NC(c1ccccc1)C12CCC(CC1)CN2)c1cccc(C(F)(F)F)c1Cl` (stereo not drawn) [N-(2-azabicyclo[2.2.2]octan-1-yl(phenyl)methyl)-2-chloro-3-(trifluoromethyl)benzamide]: the IC50 was 0.258 µM.

The assay is the same for the next values; noted with them: compounds of Formula Ib, read at 2 h.
For `CN1CC2CCC1(C(NC(=O)c1ccc(Cl)cc1Cl)c1ccccc1)CC2` (stereo not drawn) [2,4-dichloro-N-((2-methyl-2-azabicyclo[2.2.2]octan-1-yl)(phenyl)methyl)benzamide], the midpoint of inhibition, the IC50, lay at 0.00645 µM.

In the case of `CN1CC2CCC1(C(NC(=O)c1cccc(F)c1Br)c1ccccc1)CC2` (stereo not drawn) [2-bromo-3-fluoro-N-((2-methyl-2-azabicyclo[2.2.2]octan-1-yl)(phenyl)methyl)benzamide], the IC50 was 0.0258 µM.

The compound `CN1CC2CCC1(C(NC(=O)c1c(Cl)cccc1Br)c1ccccc1)CC2` (stereo not drawn) [2-bromo-6-chloro-N-((2-methyl-2-azabicyclo[2.2.2]octan-1-yl)(phenyl)methyl)benzamide] yielded an IC50 of 0.0121 µM.

`Cc1cccc(Br)c1C(=O)NC(c1ccccc1)C12CCC(CC1)CN2C` (stereo not drawn) [2-bromo-6-methyl-N-((2-methyl-2-azabicyclo[2.2.2]octan-1-yl)(phenyl)methyl)benzamide] registered an IC50 of 0.00134 µM.

As to `CN1CC2CCC1(C(NC(=O)c1ccccc1Br)c1ccccc1)CC2` (stereo not drawn) [2-bromo-N-((2-methyl-2-azabicyclo[2.2.2]octan-1-yl)(phenyl)methyl)benzamide], the IC50 came to 0.0105 µM.

In turn, `CN1CC2CCC1(C(NC(=O)c1cccc(F)c1Cl)c1ccccc1)CC2` (stereo not drawn) [2-chloro-3-fluoro-N-((2-methyl-2-azabicyclo[2.2.2]octan-1-yl)(phenyl)methyl)benzamide] came in with an IC50 of 0.012 µM.

Consider `COc1ccc(Cl)c(C(=O)NC(c2ccccc2)C23CCC(CC2)CN3C)c1` (stereo not drawn) [2-chloro-5-methoxy-N-((2-methyl-2-azabicyclo[2.2.2]octan-1-yl)(phenyl)methyl)benzamide], for which the concentration for half-maximal inhibition (IC50) stood at 0.0327 µM.

The compound `COc1cccc(Cl)c1C(=O)NC(c1ccccc1)C12CCC(CC1)CN2C` (stereo not drawn) [2-chloro-6-methoxy-N-((2-methyl-2-azabicyclo[2.2.2]octan-1-yl)(phenyl)methyl)benzamide] came in with an IC50 of 0.00315 µM.

For `Cc1cccc(Cl)c1C(=O)NC(c1ccccc1)C12CCC(CC1)CN2C` (stereo not drawn) [2-chloro-6-methyl-N-((2-methyl-2-azabicyclo[2.2.2]octan-1-yl)(phenyl)methyl)benzamide], the IC50 was found to be 0.0023 µM.

As to `CN1CC2CCC1(C(NC(=O)c1ccccc1Cl)c1ccccc1)CC2` (stereo not drawn) [2-chloro-N-((2-methyl-2-azabicyclo[2.2.2]octan-1-yl)(phenyl)methyl)benzamide], the IC50 was 0.0651 µM.

Regarding `CN1CC2CCC1(C(NC(=O)c1cccc(C(F)(F)F)c1F)c1ccccc1)CC2` (stereo not drawn) [2-fluoro-N-((2-methyl-2-azabicyclo[2.2.2]octan-1-yl)(phenyl)methyl)-3-(trifluoromethyl)benzamide], the IC50 worked out at 0.092 µM.

`CN1CC2CCC1(C(NC(=O)c1c(F)cccc1C(F)(F)F)c1ccccc1)CC2` (stereo not drawn) [2-fluoro-N-((2-methyl-2-azabicyclo[2.2.2]octan-1-yl)(phenyl)methyl)-6-(trifluoromethyl)benzamide] had an IC50 of 0.065 µM.

Take `Cc1c(C(=O)NC(c2ccccc2)C23CCC(CC2)CN3C)cccc1C(F)(F)F` (stereo not drawn) [2-methyl-N-((2-methyl-2-azabicyclo[2.2.2]octan-1-yl)(phenyl)methyl)-3-(trifluoromethyl)benzamide]: the IC50 is below 0.00234 µM.

The compound `Cc1ccccc1C(=O)NC(c1ccccc1)C12CCC(CC1)CN2C` (stereo not drawn) [2-methyl-N-((2-methyl-2-azabicyclo[2.2.2]octan-1-yl)(phenyl)methyl)benzamide] displayed an IC50 of 0.00348 µM.

As for `Cc1c(F)cccc1C(=O)NC(c1ccccc1)C12CCC(CC1)CN2C` (stereo not drawn) [3-fluoro-2-methyl-N-((2-methyl-2-azabicyclo[2.2.2]octan-1-yl)(phenyl)methyl)benzamide], the IC50 was 0.0026 µM.

`CN1CC2CCC1([C@H](NC(=O)c1ccc(Cl)cc1Cl)c1ccccc1)CC2` [(R)-2,4-dichloro-N-((2-methyl-2-azabicyclo[2.2.2]octan-1-yl)(phenyl)methyl)benzamide,citric acid salt] returned an IC50 of 0.0111 µM.

Compound `CN1CC2CCC1([C@H](NC(=O)c1cccc(F)c1Cl)c1ccccc1)CC2` [(R)-2-chloro-3-fluoro-N-((2-methyl-2-azabicyclo[2.2.2]octan-1-yl)(phenyl)methyl)benzamide,citric acid salt] displayed an IC50 of 0.0059 µM.

Regarding `COc1cccc(Cl)c1C(=O)N[C@H](c1ccccc1)C12CCC(CC1)CN2C` [(R)-2-chloro-6-methoxy-N-((2-methyl-2-azabicyclo[2.2.2]octan-1-yl)(phenyl)methyl)benzamide,citric acid salt], the IC50 was determined as 0.00474 µM.

`CCOc1ccccc1C(=O)N[C@H](c1ccccc1)C12CCC(CC1)CN2C` [(R)-2-ethoxy-N-((2-methyl-2-azabicyclo[2.2.2]octan-1-yl)(phenyl)methyl)benzamide,citric acid salt] came in with an IC50 of 0.336 µM.

As for `CCc1ccccc1C(=O)N[C@H](c1ccccc1)C12CCC(CC1)CN2C` [(R)-2-ethyl-N-((2-methyl-2-azabicyclo[2.2.2]octan-1-yl)(phenyl)methyl)benzamide,citric acid salt], the IC50 came to 0.000965 µM.

With `CN1CC2CCC1([C@H](NC(=O)c1ccccc1C(F)(F)F)c1ccccc1)CC2` [(R)-N-((2-methyl-2-azabicyclo[2.2.2]octan-1-yl)(phenyl)methyl)-2-(trifluoromethyl)benzamide,citric acid salt], inhibition was half-maximal at 0.0496 µM (IC50).

`CN1CC2CCC1(C(NC(=O)c1cc(C(F)(F)F)ccc1C(F)(F)F)c1ccccc1)CC2` (stereo not drawn) [N-((2-methyl-2-azabicyclo[2.2.2]octan-1-yl)(phenyl)methyl)-2,5-bis(trifluoromethyl)benzamide] came in with an IC50 of 0.0862 µM.

For the compound `CSc1ccccc1C(=O)NC(c1ccccc1)C12CCC(CC1)CN2C` (stereo not drawn) [N-((2-methyl-2-azabicyclo[2.2.2]octan-1-yl)(phenyl)methyl)-2-(methylthio)benzamide], 0.00295 µM corresponded to half-maximal inhibition (IC50).

`CN1CC2CCC1(C(NC(=O)c1ccccc1OC(F)(F)F)c1ccccc1)CC2` (stereo not drawn) [N-((2-methyl-2-azabicyclo[2.2.2]octan-1-yl)(phenyl)methyl)-2-(trifluoromethoxy)benzamide] displayed an IC50 of 0.0136 µM.

Take `CN1CC2CCC1(C(NC(=O)c1ccc(F)cc1Cl)c1ccccc1)CC2` (stereo not drawn) [drawing 37, 2-chloro-4-fluoro-N-((2-methyl-2-azabicyclo[2.2.2]octan-1-yl)(phenyl)methyl)benzamide]: the IC50 came out at 0.00845 µM.

Source of the values: patent publication US20090030033A1, “Novel Compounds 894” (AstraZeneca AB, priority 2007, published 2009).
